According to US20110166191A1, “3-(2-amino-ethyl)-5-(3-cyclohexyl-propylidene)-thiazolidine-2,4-dione and its derivatives as multiple signaling pathway inhibitors and for the treatment of cancer” (priority 2010, published 2011):

Tests used:
Test in all cases: NCI 60 cell line panel screening
Format in all cases: cell-based
NCI-522 = conditions: Non-Small Cell Lung Cancer, read-out: Growth Inhibition (GI50)
Description: (§1) Compound 3-(2-aminoethyl)-5-(3-cyclohexylpropylidene)thiazolidine-2,4-dione was screened at five concentrations in National Cancer Institute (NCI) 60-cell line panel according to NCI's protocol for growth inhibition.

SNB-75 = conditions: Homo sapiens, CNS Cancer, read-out: Growth Inhibition (GI50)
Description: as §1

SF-268 = conditions: Homo sapiens, CNS Cancer, read-out: Growth Inhibition (GI50)
Description: as §1

SK-OV-3 = conditions: Homo sapiens, Ovarian Cancer, read-out: Growth Inhibition (GI50)
Description: as §1

MCF7 = conditions: Homo sapiens, Breast Cancer, read-out: Growth Inhibition (GI50)
Description: as §1

K-562 = conditions: Homo sapiens, K562, Leukemia, read-out: Growth Inhibition (GI50)
Description: as §1

T-47D = conditions: Homo sapiens, T47D, Breast Cancer, read-out: Growth Inhibition (GI50)
Description: as §1

PC-3 = conditions: Homo sapiens, Prostate Cancer, read-out: Growth Inhibition (GI50)
Description: as §1

M14 = conditions: Homo sapiens, Melanoma, read-out: Growth Inhibition (GI50)
Description: as §1

HT29 = conditions: Homo sapiens, HT-29, Colon Cancer, read-out: Growth Inhibition (GI50)
Description: as §1

SK-MEL-5 = conditions: Homo sapiens, Melanoma, read-out: Growth Inhibition (GI50)
Description: as §1

786-0 = conditions: Homo sapiens, Renal Cancer, read-out: Growth Inhibition (GI50)
Description: as §1

OVCAR-4 = conditions: Homo sapiens, Ovarian Cancer, read-out: Growth Inhibition (GI50)
Description: as §1

SK-MEL-28 = conditions: Homo sapiens, Melanoma, read-out: Growth Inhibition (GI50)
Description: as §1

OVCAR-3 = conditions: Homo sapiens, Ovarian Cancer, read-out: Growth Inhibition (GI50)
Description: as §1

SW-620 = conditions: Homo sapiens, Colon Cancer, read-out: Growth Inhibition (GI50)
Description: as §1

BT-549 = conditions: Homo sapiens, Breast Cancer, read-out: Growth Inhibition (GI50)
Description: as §1

COLO 205 = conditions: Homo sapiens, Colon Cancer, read-out: Growth Inhibition (GI50)
Description: as §1

HS 578T = conditions: Homo sapiens, Breast Cancer, read-out: Growth Inhibition (GI50)
Description: as §1

HOP-92 = conditions: Homo sapiens, Non-Small Cell Lung Cancer, read-out: Growth Inhibition (GI50)
Description: as §1

UO-31 = conditions: Homo sapiens, Renal Cancer, read-out: Growth Inhibition (GI50)
Description: as §1

MALME-3M = conditions: Homo sapiens, Melanoma, read-out: Growth Inhibition (GI50)
Description: as §1

SK-MEL-2 = conditions: Homo sapiens, Melanoma, read-out: Growth Inhibition (GI50)
Description: as §1

EKVX = conditions: Homo sapiens, Non-Small Cell Lung Cancer, read-out: Growth Inhibition (GI50)
Description: as §1

OVCAR-5 = conditions: Homo sapiens, Ovarian Cancer, read-out: Growth Inhibition (GI50)
Description: as §1

TK-10 = conditions: Homo sapiens, Renal Cancer, read-out: Growth Inhibition (GI50)
Description: as §1

LOX IMVI = conditions: Homo sapiens, Melanoma, read-out: Growth Inhibition (GI50)
Description: as §1

A498 = conditions: Homo sapiens, Renal Cancer, read-out: Growth Inhibition (GI50)
Description: as §1

ACHN = conditions: Homo sapiens, Renal Cancer, read-out: Growth Inhibition (GI50)
Description: as §1

NCI-H460 = conditions: Homo sapiens, Non-Small Cell Lung Cancer, read-out: Growth Inhibition (GI50)
Description: as §1

SF-539 = conditions: Homo sapiens, CNS Cancer, read-out: Growth Inhibition (GI50)
Description: as §1

HOP-62 = conditions: Homo sapiens, Non-Small Cell Lung Cancer, read-out: Growth Inhibition (GI50)
Description: as §1

UACC-62 = conditions: Homo sapiens, Melanoma, read-out: Growth Inhibition (GI50)
Description: as §1

A549/ATCC = conditions: Homo sapiens, Non-Small Cell Lung Cancer, read-out: Growth Inhibition (GI50)
Description: as §1

NCI-H23 = conditions: Homo sapiens, Non-Small Cell Lung Cancer, read-out: Growth Inhibition (GI50)
Description: as §1

HL-60(TB) = conditions: Homo sapiens, Leukemia, read-out: Growth Inhibition (GI50)
Description: as §1

HCT-15 = conditions: Homo sapiens, Colon Cancer, read-out: Growth Inhibition (GI50)
Description: as §1

RXF-393 = conditions: Homo sapiens, Renal Cancer, read-out: Growth Inhibition (GI50)
Description: as §1

SF-295 = conditions: Homo sapiens, CNS Cancer, read-out: Growth Inhibition (GI50)
Description: as §1

MDA-MB-435 = conditions: Homo sapiens, Melanoma, read-out: Growth Inhibition (GI50)
Description: as §1

IGROV1 = conditions: Homo sapiens, IGROV-1, Ovarian Cancer, read-out: Growth Inhibition (GI50)
Description: as §1

DU-145 = conditions: Homo sapiens, Prostate Cancer, read-out: Growth Inhibition (GI50)
Description: as §1

MOLT-4 = conditions: Homo sapiens, Leukemia, read-out: Growth Inhibition (GI50)
Description: as §1

SN12C = conditions: Homo sapiens, Renal Cancer, read-out: Growth Inhibition (GI50)
Description: as §1

MDA-MB-231/ATCC = conditions: Homo sapiens, Breast Cancer, read-out: Growth Inhibition (GI50)
Description: as §1

NCI-H322M = conditions: Homo sapiens, Non-Small Cell Lung Cancer, read-out: Growth Inhibition (GI50)
Description: as §1

## NCCN1C(=O)S/C(=C\CCC2CCCCC2)C1=O [Example 4, 3-(2-aminoethyl)-5-(3-cyclohexylpropylidene)thiazolidine-2,4-dione]
NCI-522
  GI50: 1.4 µM
SNB-75
  GI50: 4.56 µM
SF-268
  GI50: 2.23 µM
SK-OV-3
  GI50: 4.04 µM
MCF7
  GI50: 3.13 µM
K-562
  GI50: 2.59 µM
T-47D
  GI50: 2.04 µM
PC-3
  GI50: 1.91 µM
M14
  GI50: 1.68 µM
HT29
  GI50: 2.04 µM
SK-MEL-5
  GI50: 1.7 µM
786-0
  GI50: 1.72 µM
OVCAR-4
  GI50: 1.6 µM
SK-MEL-28
  GI50: 1.77 µM
OVCAR-3
  GI50: 1.89 µM
SW-620
  GI50: 1.85 µM
BT-549
  GI50: 2.05 µM
COLO 205
  GI50: 2.19 µM
HS 578T
  GI50: 2.49 µM
HOP-92
  GI50: 5.41 µM
UO-31
  GI50: 1.56 µM
MALME-3M
  GI50: 1.8 µM
SK-MEL-2
  GI50: 1.9 µM
EKVX
  GI50: 2.53 µM
OVCAR-5
  GI50: 1.98 µM
TK-10
  GI50: 2.01 µM
LOX IMVI
  GI50: 1.4 µM
A498
  GI50: 1.57 µM
ACHN
  GI50: 1.84 µM
NCI-H460
  GI50: 1.95 µM
SF-539
  GI50: 1.83 µM
HOP-62
  GI50: 3.25 µM
UACC-62
  GI50: 2.14 µM
A549/ATCC
  GI50: 2.5 µM
NCI-H23
  GI50: 3.08 µM
HL-60(TB)
  GI50: 2.04 µM
HCT-15
  GI50: 2.47 µM
RXF-393
  GI50: 2.56 µM
SF-295
  GI50: 1.73 µM
MDA-MB-435
  GI50: 1.85 µM
IGROV1
  GI50: 1.96 µM
DU-145
  GI50: 1.76 µM
MOLT-4
  GI50: 2.38 µM
SN12C
  GI50: 2.15 µM
MDA-MB-231/ATCC
  GI50: 2.08 µM
NCI-H322M
  GI50: 5.1 µM
